Results on two molecules are retold here after patent EP1688137A1, “SPM 927 for add-on therapy of schizophrenia” (SCHWARZ PHARMA AG, priority 2005, dated 2006).

Structures are written as SMILES.

In this assay the test system is C57BL/6J mice. The assay can be described thus: prepulse inhibition (PPI) of the acoustic startle reflex, animal model for schizophrenia. It counts as in vivo. The settings on record: 30 min prior to testing, n=12. On the procedure:
Some anti-epileptic drugs have proven pre-clinical and/or clinical efficacy as add-on therapy for schizophrenia. SPM 927 was tested in a simple animal model with predictive validity for schizophrenia (i.e. prepulse inhibition (PPI) of the acoustic startle reflex). SPM 927 was tested alone and in combination with the atypical antipsychotic drug clozapine.
The acoustic startle is an unconditioned reflex response to an external auditory stimulation. PPI refers to the reduction in the startle response caused by the presentation of a low-intensity auditory stimulus prior to the startle stimulus. The PPI paradigm is the choice for the study of schizophrenia and antipsychotic action due to the similarities between the results from human and rodent studies. Antipsychotic drugs, such as clozapine, result in a dose-dependent increase in PPI in mice. Thus, an increase of PPI in normal mice may be indicative of antipsychotic efficacy.
C57BL/6J mice obtained from the Jackson Laboratory, Bar Harbor, Maine were received at the age of 6 weeks and were assigned unique identification numbers (tail marked). Animals were housed 4 per cage in polycarbonate cages with filter tops and acclimated for 7 days. All animals were examined, handled, and weighed prior to initiation of the study to assure adequate health and suitability and to minimize non-specific stress associated with manipulation.
During the course of the study, 12/12 light/dark cycles and a room temperature of 20 to 23°C were maintained with a relative humidity maintained around 50%. Chow and water were provided ad libitum for the duration of the study. Each mouse was randomly assigned across the treatment groups and balanced by cage numbers. The test was performed during the animal's light cycle phase. Twelve animals were used in each treatment group.
SPM 927 was dissolved in Saline (0.9% NaCl in sterile H2O). Clozapine was dissolved in 1 % Tween 80 in sterile H2O at a final pH of 6.0. All compounds were administered intraperitoneal (ip) (volume injection: 10 ml/kg). SPM 927 was administered at doses of 1, 10 and 30 mg/kg and Clozapine at a dose of 3 mg/kg. Doses are expressed as mg of salt. Control mice were administered saline (vehicle 1, VEH 1) or 1% Tween 80 (vehicle 2, VEH 2) at a pH of 6.0. The drug treatments were balanced across days and the animals only used once. All tests were conducted blind. All compounds were administered 30 mins prior to testing.
Animals were placed in the PPI chambers (Med Associates) for a 5 min session of white noise (70 dB) habituation. After the acclimation period the test session was automatically started. The session started with an habituation block of 6 presentations of the startle stimulus alone, followed by 10 PPI blocks of 6 different types of trials. Trial types are: null (no stimuli), startle (120 dB), startle plus prepulse (4, 8 and 12 dB over background noise i.e. 74, 78 or 82 dB) and prepulse alone (82 dB). Trial types were presented at random within each block. Each trial started with a 50 ms null period during which baseline movements are recorded. There was a subsequent 20 ms period during which prepulse stimuli were presented and responses to the prepulse measured. After further 100 ms the startle stimuli were presented for 40 ms and responses recorded for 100 ms from startle onset. Responses were sampled every ms. The inter-trial interval was variable with an average of 15 s (range from 10 to 20 s). In startle alone trials the basic auditory startle is measured and in prepulse plus startle trials the amount of inhibition of the normal startle is determined and expressed as a percentage of the basic startle response (from startle alone trials), excluding the startle response of the first habituation block. Eight animals were tested at one time.
Twelve animals were tested in each group. […]

Turning to `CN1CCN(C2=Nc3cc(Cl)ccc3Nc3ccccc32)CC1` [CLOZ, clozapine, reference compound], the “Mean PPI” value (VEH 1 / clozapine 3 mg/kg ip, PPI expressed as percentage of basic startle response) was found to be 45±2.
`COC[C@@H](NC(C)=O)C(=O)NCc1ccccc1` [SPM 927, (R)-2-acetamide-N-benzyl-3-methoxypropionamide]: the “Mean PPI” value runs as follows: (SPM 927 3 mg/kg ip / VEH 2 (alone)) 29±3; (SPM 927 3 mg/kg ip in combination with clozapine 3 mg/kg ip) 43±2; (SPM 927 10 mg/kg ip / VEH 2 (alone)) 34±3; (SPM 927 10 mg/kg ip in combination with clozapine 3 mg/kg ip) 45±2; (SPM 927 30 mg/kg ip / VEH 2 (alone)) 27±2; (SPM 927 30 mg/kg ip in combination with clozapine 3 mg/kg ip) 57±5.
